Assay results reported in publication PMC12069340 (Frontiers in Cellular and Infection Microbiology, 2025).
Structures can show the parent of a compound that is named as a salt. Where two headings read alike, the source gives them in different places.

Columns and labels:
U937 cells [1] = conditions: 20 µM
[2] = system: A/PuertoRico/8/1934 (H1N1) virus; test: microbe, parasite or virus in culture; assay type: cell-based, influenza A virus
in vitro [3] = test: in vitro
in vitro [4] = conditions: dog
[5] = system: B/Human/Hubei/1/2007 (IBV); test: microbe, parasite or virus in culture; assay type: cell-based; conditions: Influenza B virus, MDCK, 48 h, read-out: IBV IC50
in vitro [6] = conditions: human, Relative Viability (%)
[7] = system: A/Human/Hubei/3/2005 (H3N2); test: microbe, parasite or virus in culture; assay type: cell-based; conditions: Influenza A virus, H3N2, A549, 48 h, read-out: H3N2 IC50
[8] = system: A/PuertoRico/8/1934 (H1N1) virus; test: microbe, parasite or virus in culture; assay type: cell-based, influenza A virus; remark: listed apart in the source
[9] = Validation screen: cytotoxicity without viral infection; conditions: human
striatal neurons = system: striatal neurons; parameters: method as in Iwatsubo et al., 2007; conditions: young and neonatal neurons; ref Iwatsubo et al., 2007; cited from earlier work
U937 cells [10] = system: U937 cells
in vitro [11] = conditions: human
[12] = Influenza A virus, H1N1, U-937, 48 h; read-out: NA Inhibition (%)
[13] = Influenza A virus, H1N1, U-937, 48 h
[14] = Influenza A virus, H1N1, U-937, 48 h, read-out: NA Inhibition (%)

Molecule | Relative Viability (%) (U937 cells [1]) | NA Inhibition (%) ([2]; 20 µM) | viability at 20 µM (in vitro [6]) | other results
COc1ccc(C[C@@H](C)NC[C@H](O)c2ccc(O)c(NC=O)c2)cc1.COc1ccc(C[C@@H](C)NC[C@H](O)c2ccc(O)c(NC=O)c2)cc1.O=C(O)/C=C/C(=O)O [Formoterol Hemifumarate] | 121.9% | -23.1% | – | –
MetoclopraMide HCl | 126.3% | -36.9% | – | –
COc1cc([C@@H]2c3cc4c(cc3[C@@H](O[C@@H]3O[C@@H]5CO[C@@H](C)O[C@H]5[C@H](O)[C@H]3O)[C@H]3COC(=O)[C@H]23)OCO4)cc(OC)c1O [etoposide] | – | – | – | CC50 (in vitro [3]): 260 µM
CCCN(CCc1cccs1)[C@H]1CCc2c(O)cccc2C1 [Rotigotine] | – | – | 147% | CC50 at 48 h (in vitro [4]): 93 µM; inhibition at 20 µM [2, 12]: 89.1%; IC50 [5]: 7.3 µM; CC50 (in vitro [3]; human): 372 µM; IC50 [7]: 21.9 µM; IC50 [8, 13]: 1.26 µM
OC(CNCC(O)C1CCc2cc(F)ccc2O1)C1CCc2cc(F)ccc2O1 (stereo not shown) [Nebivolol] | – | – | 89.4% | inhibition at 20 µM [2, 12]: 66.4%; CC50 at 48 h ([9]; uninfected U937 cells): 33.3 µM; IC50 [8, 13]: 9.8 µM
Cyclizine 2HCl | 90.9% | -4.6% | – | –
Ivabradine HCl | 104.6% | -0.1% | – | –
CCCN1C[C@H](CSC)C[C@@H]2c3cccc4[nH]cc(c34)C[C@H]21 [Pergolide mesylate] | – | – | 118% | inhibition at 20 µM [2, 12]: 67.8%; CC50 at 48 h ([9]; uninfected U937 cells): > 80 µM; IC50 [8, 13]: 7.1 µM
NCCc1ccc(O)c(O)c1 [Dopamine HCl] | – | – | – | apoptosis (striatal neurons): can induce apoptosis in young striatal neurons through D1-like receptors, but not in neonatal neurons; inhibition at 20 µM [2, 14]: -7.6%
Succinylcholine Chloride Dihydrate | 99.6% | 13.3% | – | –
Naloxone HCl Dihydrate | 113.1% | 27.3% | – | –
Cc1c(Cl)c(OCC(=O)N2CCN(C)CC2)nc2sc(C(=O)NC3CC3)c(N)c12 [LY2119620] | 99.3% | 19.0% | – | –
Atipamezole hydrochloride | 119.4% | 58.1% | – | –
Bambuterol HCl | 102.5% | -2.9% | – | –
Varenicline Tartrate | 108.9% | 6.8% | – | –
Galanthamine HBr | 108.7% | -13.2% | – | –
Promethazine HCl | 105.7% | 64.8% | – | CC50 (U937 cells [10]): > 80 µM; IC50 ([8]; read-out: IC50): 9.3 µM
Hydroxyzine 2HCl | 101.7% | 18.4% | – | –
CN1CCCC(n2nc(Cc3ccc(Cl)cc3)c3ccccc3c2=O)CC1 (stereo not shown) [Azelastine HCl] | – | – | 99.4% | inhibition at 20 µM [2, 12]: 55.3%; CC50 at 48 h ([9]; uninfected U937 cells): 55.7 µM; IC50 [8, 13]: 8.4 µM
Urapidil HCl | 103.3% | 5.3% | – | –
Itopride hydrochloride | 109.7% | 9.1% | – | –

Molecule | Relative Viability (%) (U937 cells [1]) | NA Inhibition (%) ([2]; 20 µM) | viability at 20 µM (in vitro [6]) | other results
CN1[C@@H]2CC[C@H]1C[C@@H](OC(c1ccccc1)c1ccccc1)C2 [Benztropine mesylate] | – | – | 108% | inhibition at 20 µM [2, 14]: 57.8%; CC50 at 48 h ([9]; uninfected U937 cells): > 80 µM
Tetrahydrozoline HCl | 96.0% | 9.5% | – | –
Cc1cccc(C(C)c2cnc[nH]2)c1C (stereo not shown) [Medetomidine HCl] | – | – | 103% | inhibition at 20 µM [2, 14]: 59.7%; CC50 at 48 h [9]: > 80 µM; IC50 [8, 13]: 12.5 µM
O=C(C[S+]([O-])Cc1ccco1)NC/C=C\COc1cc(CN2CCCCC2)ccn1 (stereo not shown) [Lafutidine] | – | – | 109% | inhibition at 20 µM [2, 12]: 52%; CC50 at 48 h (in vitro [11]): > 80 µM; IC50 [8, 13]: 14.8 µM
Synephrine HCl | 99.1% | 10.3% | – | –
CN(C)[C@@H](CCOc1cccc2ccccc12)c1ccccc1 [Dapoxetine HCl] | – | – | 110% | inhibition at 20 µM [2, 12]: 63.4%; CC50 at 48 h ([9]; uninfected U937 cells): 76.1 µM; IC50 [8, 13]: 6.65 µM
Meclizine 2HCl | 109.3% | 74.9% | – | CC50 (U937 cells [10]): 79.5 µM; IC50 ([8]; read-out: IC50): 5.3 µM
Ondansetron HCl | 98.5% | 4.7% | – | –
Paroxetine HCl | 85.1% | 51.2% | – | –
Gabapentin HCl | 111.9% | -16.1% | – | –
Naftopidil DiHCl | 88.1% | 6.2% | – | –
Cc1ccc(OCC(O)C(C)NC(C)C)c2c1CCC2 (stereo not shown) [ICI-118551] | – | – | 106% | inhibition at 20 µM [2, 14]: 60.7%; CC50 at 48 h (in vitro [11]): > 80 µM; IC50 [8, 13]: 5.8 µM
CCCN[C@H]1CCc2nc(N)sc2C1 [Pramipexole] | – | -25.0 | – | Relative Viability (%) (U937 cells [1]; human): 91.8
Propranolol HCl | – | 65.3% | – | CC50 (U937 cells [10]): > 80 µM
Salbutamol Sulfate | 114.7% | 6.4% | – | –
PRX-08066 Maleic acid | 92.0% | 20.2% | – | –
CCCCCCNC(=O)Nc1ccc(S(=O)(=O)Nc2ccc(CCNC[C@H](O)COc3ccc(O)cc3)cc2)cc1 [L755507] | 100.1% | -1.1% | – | –
CN(C)CCOC(c1ccc(Cl)cc1)c1ccccn1.O=C(O)/C=C\C(=O)O (stereo not shown) [ArbinoxaMine Maleate] | 94.3% | 29.8% | – | –
Almotriptan Malate | 114.2% | 21.0% | – | –
Vortioxetine (Lu AA21004) HBr | 95.3% | 23.8% | – | –
Cc1ccsc1C(=CCCN1CCC[C@@H](C(=O)O)C1)c1sccc1C [Tiagabine hydrochloride] | – | 19.9% | – | Relative Viability (%) (U937 cells [1]; human): 91.7%

Molecule | Relative Viability (%) (U937 cells [1]) | NA Inhibition (%) ([2]; 20 µM) | viability at 20 µM (in vitro [6]) | other results
Cc1ccc(N(CC2=NCCN2)c2cccc(O)c2)cc1 [Phentolamine Mesylate] | – | – | 117% | inhibition at 20 µM [2, 14]: 72.3%; CC50 at 48 h ([9]; uninfected U937 cells): > 80 µM; IC50 [8, 13]: 1 µM
Lorcaserin HCl | 104.4% | 17.8% | – | –
CCN1CCCC1CNC(=O)c1cc(S(=O)(=O)CC)c(N)cc1OC (stereo not shown) [Amisulpride] | – | – | 89.7% | inhibition at 20 µM [2, 12]: 6.2%
CCN(CC)CC#CCOC(=O)C(O)(c1ccccc1)C1CCCCC1 (stereo not shown) [Oxybutynin] | – | – | 104% | inhibition at 20 µM [2, 14]: -3.6%
CN(C)CC/C=C1/c2ccccc2COc2ccc(CC(=O)O)cc21 [Olopatadine HCl] | – | – | 122% | inhibition at 20 µM [2, 12]: -11.6%
COc1cc2nc(N3CCN(C(=O)C4CCCO4)CC3)nc(N)c2cc1OC (stereo not shown) [Terazosin] | – | – | 87.8% | inhibition at 20 µM [2, 12]: -47.2%
CN(C)CCCN1c2ccccc2Sc2ccc(Cl)cc21 [Chlorpromazine HCl] | – | – | 115% | inhibition at 20 µM [2, 12]: 53.3%
Cc1cc(C(C)(C)C)c(O)c(C)c1CC1=NCCN1 [Oxymetazoline hydrochloride] | – | – | 113% | inhibition at 20 µM [2, 14]: -21%
O=C(O[C@H]1C[N+]2(CCCOc3ccccc3)CCC1CC2)C(O)(c1cccs1)c1cccs1 [Aclidinium Bromide] | – | – | 194% | inhibition at 20 µM [2, 12]: 13.8%
COCCc1ccc(OCC(O)CNC(C)C)cc1 (stereo not shown) [Metoprolol Tartrate] | – | – | 106% | inhibition at 20 µM [2, 14]: -24.2%
(+)-Matrine | 109.9% | 9.9% | – | –
CN1CCc2cc3c(cc2[C@H]1[C@@H]1OC(=O)c2c1ccc1c2OCO1)OCO3 [(+)-Bicuculline] | 98.1% | -11.3% | – | –
CC(C)NCC(O)c1ccc(O)c(O)c1 (stereo not shown) [Isoprenaline HCl] | – | – | – | apoptosis (striatal neurons): did not promote apoptosis in either group; inhibition at 20 µM [2, 12]: -12.4%
Cc1cccn2c(=O)c(-c3nnn[nH]3)cnc12 [Pemirolast potassium] | – | – | 108% | inhibition at 20 µM [2, 12]: -23.7%
CN1[C@@H]2CC[C@H]1C[C@@H](OC(=O)c1c[nH]c3ccccc13)C2 [Tropisetron] | – | – | 80.9% | inhibition at 20 µM [2, 12]: 55.4%
CCCC(CCC)C(=O)O [Valproic acid sodium salt] | – | – | 113% | inhibition at 20 µM [2, 12]: -18.5%
OCc1cc(C(O)CNCCCCCCOCCCCc2ccccc2)ccc1O (stereo not shown) [Salmeterol Xinafoate] | – | – | 90.4% | inhibition at 20 µM [2, 14]: 69.9%; CC50 at 48 h ([9]; uninfected U937 cells): 40.2 µM; IC50 [8, 13]: 4.4 µM
CN(C)CCC(c1ccc(Cl)cc1)c1ccccn1 (stereo not shown) [Chlorpheniramine Maleate] | – | – | 102% | inhibition at 20 µM [2, 12]: 1%
C=C(CC)C(=O)c1ccc(OCC(=O)O)c(Cl)c1Cl [ethacrynic acid, Ethacrynic acid] | – | – | – | CC50 (in vitro [3]): 240 µM
